Source: PubChem BioAssay AID1259407 (Chemical Carcinogenesis Research Information System (CCRIS), 2018)
Activity calls are given as the source filed them. No rule for the calls is given here.

Tested on: CCRIS mutagenicity, Ames/micronucleus/aberration tests
Assay: CCRIS mutagenicity studies
[1] = Test System: AMES SALMONELLA TYPHIMURIUM, Strain/Indicator: TA97, Metabolic Activation: NONE, Method: STANDARD PLATE
[2] = Test System: AMES SALMONELLA TYPHIMURIUM, Strain/Indicator: TA98, Metabolic Activation: NONE, Method: STANDARD PLATE
[3] = Test System: AMES SALMONELLA TYPHIMURIUM, Strain/Indicator: TA100, Metabolic Activation: NONE, Method: STANDARD PLATE
[4] = Test System: AMES SALMONELLA TYPHIMURIUM, Strain/Indicator: TA102, Metabolic Activation: NONE, Method: STANDARD PLATE
[5] = Test System: AMES SALMONELLA TYPHIMURIUM, Strain/Indicator: TA100, Metabolic Activation: RAT, LIVER, S-9, AROCLOR 1254, Method: STANDARD PLATE
[6] = Test System: AMES SALMONELLA TYPHIMURIUM, Strain/Indicator: TA98, Metabolic Activation: NONE, Method: PREINCUBATION
[7] = Test System: AMES SALMONELLA TYPHIMURIUM, Strain/Indicator: TA98, Metabolic Activation: RAT, LIVER, S-9, PCB, Method: PREINCUBATION
[8] = Test System: AMES SALMONELLA TYPHIMURIUM, Strain/Indicator: TA100, Metabolic Activation: NONE, Method: PREINCUBATION
[9] = Test System: AMES SALMONELLA TYPHIMURIUM, Strain/Indicator: TA100, Metabolic Activation: RAT, LIVER, S-9, PCB, Method: PREINCUBATION
[10] = Test System: AMES SALMONELLA TYPHIMURIUM, Strain/Indicator: TA1537, Metabolic Activation: NONE, Method: STANDARD PLATE

For `COc1cccc2c1C(=O)c1c(O)c3c(c(O)c1C2=O)C[C@@](O)(C(=O)CO)C[C@@H]3O[C@H]1C[C@H](N)[C@@H](O)[C@H](C)O1`, which mutagenic call [1] is on record?
The mutagenic call was “inactive; negative”.

And the mutagenic call [2]?
Its mutagenic call is “active; positive”.

And the mutagenic call [3]?
Its mutagenic call is “inactive; negative”.

What about the mutagenic call [4] of the same compound?
The mutagenic call was “active; positive”.

What about the mutagenic call (Test System: AMES SALMONELLA TYPHIMURIUM, Strain/Indicator: TA104, Metabolic Activation: NONE, Method: STANDARD PLATE) of the same compound?
Its mutagenic call is “inactive; negative”.

What about the mutagenic call (Test System: AMES SALMONELLA TYPHIMURIUM, Strain/Indicator: TA2637, Metabolic Activation: NONE, Method: STANDARD PLATE) of the same compound?
The mutagenic call was “active; positive”.

For `O=C1OC(=C(Cl)Cl)C=C1Cl`, which mutagenic call [3] is on record?
Its mutagenic call is “active; positive”.

With `CCCCCn1cc2c3c(cccc31)[C@H]1C=C(C)CN(C)[C@@H]1C2` as the compound, how does the mutagenic call [5] read?
The mutagenic call was “active; positive”.

What does the source list for `CC(N)CCN` (stereo unspecified)?
mutagenic call [6]: inactive; negative; mutagenic call [7]: inactive; negative; mutagenic call [8]: inactive; negative; mutagenic call [9]: inactive; negative

What does the source list for `Oc1c(O)c(Cl)c(Cl)c(Cl)c1Cl`?
mutagenic call (Test System: CHINESE HAMSTER V-79, Strain/Indicator: V-79/6-THIOGUANINE (HGPRT), Metabolic Activation: NONE, Method: SUSPENSION/PLATE): inactive; negative; mutagenic call (Test System: CHINESE HAMSTER V-79, Strain/Indicator: V-79/6-THIOGUANINE, Metabolic Activation: NONE, Method: STANDARD PLATE): inactive; negative; mutagenic call (Test System: CHINESE HAMSTER V-79, Strain/Indicator: V-79/6-THIOGUANINE, Metabolic Activation: PRIMARY RAT HEPATOCYTES, Method: STANDARD PLATE): inactive; negative; mutagenic call (Test System: CHINESE HAMSTER V-79, Strain/Indicator: V-79/OUABAIN, Metabolic Activation: NONE, Method: SUSPENSION/PLATE): inactive; negative

How did the mutagenic call [6] turn out when `c1cnc2cnncc2c1` was run?
Its mutagenic call is “inactive; negative”.

And the mutagenic call [7]?
The mutagenic call was “inactive; negative”.

And the mutagenic call [8]?
The mutagenic call was “inactive; negative”.

What about the mutagenic call [9] of the same compound?
Its mutagenic call is “inactive; negative”.

For `O[C@H]1C=Cc2c(ccc3ncccc23)[C@@H]1O`, which mutagenic call [5] is on record?
The mutagenic call was “inactive; negative”.

For `OC[C@H]1OC(n2cnc3c2ncn2ccnc32)C[C@@H]1O` (stereo partly specified), which mutagenic call [8] is on record?
Its mutagenic call is “inactive; negative”.

What does the source list for `CC(C)CC(=O)Nc1snc2ccccc12`?
mutagenic call [3]: inactive; negative; mutagenic call (Test System: AMES SALMONELLA TYPHIMURIUM, Strain/Indicator: TA100, Metabolic Activation: S-9, Method: STANDARD PLATE): inactive; negative; mutagenic call [10]: inactive; negative; mutagenic call (Test System: AMES SALMONELLA TYPHIMURIUM, Strain/Indicator: TA1537, Metabolic Activation: S-9, Method: STANDARD PLATE): inactive; negative

`CC(=O)c1oc([N+](=O)[O-])c(-c2ccccc2)c1-c1ccccc1` was tested. Which mutagenic call (Test System: AMES SALMONELLA TYPHIMURIUM, Strain/Indicator: TA98(NR), Metabolic Activation: NONE, Method: STANDARD PLATE) did it give?
Its mutagenic call is “inactive; negative”.

And the mutagenic call [2]?
The mutagenic call was “active; positive”.

What about the mutagenic call (Test System: AMES SALMONELLA TYPHIMURIUM, Strain/Indicator: TA100(NR), Metabolic Activation: NONE, Method: STANDARD PLATE) of the same compound?
Its mutagenic call is “inactive; negative”.

What about the mutagenic call [3] of the same compound?
Its mutagenic call is “active; positive”.

What does the source list for `Cc1ccc2c(ccc3ccccc32)c1`?
mutagenic call [1]: inactive; negative; mutagenic call (Test System: AMES SALMONELLA TYPHIMURIUM, Strain/Indicator: TA97, Metabolic Activation: RAT, LIVER, S-9, PCB, Method: STANDARD PLATE): active; positive; mutagenic call [2]: inactive; negative; mutagenic call (Test System: AMES SALMONELLA TYPHIMURIUM, Strain/Indicator: TA98, Metabolic Activation: RAT, LIVER, S-9, PCB, Method: STANDARD PLATE): active; positive; mutagenic call [3]: inactive; negative; mutagenic call (Test System: AMES SALMONELLA TYPHIMURIUM, Strain/Indicator: TA100, Metabolic Activation: RAT, LIVER, S-9, PCB, Method: STANDARD PLATE): active; positive

`Cn1c(N)nc2c3ccncc3ccc21` was tested. Which mutagenic call (Test System: AMES SALMONELLA TYPHIMURIUM, Strain/Indicator: TA98, Metabolic Activation: RAT, LIVER, S-9, AROCLOR 1254, Method: STANDARD PLATE) did it give?
Its mutagenic call is “active; positive”.

How did the mutagenic call (Test System: UDS RODENT PRIMARY CELLS, Strain/Indicator: THY INCORP (NON-S-PHASE), Metabolic Activation: NONE, Method: AUTORADIOGRAPHY) turn out when `Cc1cccc2c([N+](=O)[O-])cc[n+]([O-])c12` was run?
Its mutagenic call is “active; positive”.

How did the mutagenic call (Test System: AMES SALMONELLA TYPHIMURIUM, Strain/Indicator: TA98, Metabolic Activation: NONE) turn out when `CC[C@@]1(O)C[C@H](O[C@H]2C[C@H](N(C)C)[C@H](O[C@H]3C[C@H](O)[C@H](O[C@@H]4O[C@@H](C)C(=O)C=C4N)[C@H](C)O3)[C@H](C)O2)c2c(cc3c(c2O)C(=O)c2c(O)ccc(O)c2C3=O)[C@H]1C(=O)OC` was run?
The mutagenic call was “active; positive”.

And the mutagenic call (Test System: AMES SALMONELLA TYPHIMURIUM, Strain/Indicator: TA98, Metabolic Activation: RAT, LIVER, S-9, AROCLOR 1254)?
The mutagenic call was “active; positive”.

How did the mutagenic call (Test System: AMES SALMONELLA TYPHIMURIUM, Strain/Indicator: TA98, Metabolic Activation: HAMSTER LIVER S-9, AROCLOR 1254, Method: STANDARD PLATE) turn out when `Cc1cccc(O)c1N` was run?
The mutagenic call was “inactive; negative”.

What about the mutagenic call [2] of the same compound?
The mutagenic call was “inactive; negative”.

And the mutagenic call (Test System: AMES SALMONELLA TYPHIMURIUM, Strain/Indicator: TA98, Metabolic Activation: RAT LIVER S-9, AROCLOR 1254, Method: STANDARD PLATE)?
Its mutagenic call is “inactive; negative”.

And the mutagenic call (Test System: AMES SALMONELLA TYPHIMURIUM, Strain/Indicator: TA100, Metabolic Activation: HAMSTER LIVER S-9, AROCLOR 1254, Method: STANDARD PLATE)?
The mutagenic call was “inactive; negative”.

And the mutagenic call [3]?
Its mutagenic call is “inactive; negative”.

What about the mutagenic call (Test System: AMES SALMONELLA TYPHIMURIUM, Strain/Indicator: TA100, Metabolic Activation: RAT LIVER S-9, AROCLOR 1254, Method: STANDARD PLATE) of the same compound?
Its mutagenic call is “inactive; negative”.

What about the mutagenic call (Test System: AMES SALMONELLA TYPHIMURIUM, Strain/Indicator: TA102, Metabolic Activation: HAMSTER LIVER S-9, AROCLOR 1254, Method: STANDARD PLATE) of the same compound?
The mutagenic call was “inactive; negative”.

What about the mutagenic call [4] of the same compound?
The mutagenic call was “inactive; negative”.

What about the mutagenic call (Test System: AMES SALMONELLA TYPHIMURIUM, Strain/Indicator: TA102, Metabolic Activation: RAT LIVER S-9, AROCLOR 1254, Method: STANDARD PLATE) of the same compound?
The mutagenic call was “inactive; negative”.

And the mutagenic call (Test System: AMES SALMONELLA TYPHIMURIUM, Strain/Indicator: TA1535, Metabolic Activation: HAMSTER LIVER S-9, AROCLOR 1254, Method: STANDARD PLATE)?
The mutagenic call was “inactive; negative”.

What about the mutagenic call (Test System: AMES SALMONELLA TYPHIMURIUM, Strain/Indicator: TA1535, Metabolic Activation: NONE, Method: STANDARD PLATE) of the same compound?
The mutagenic call was “inactive; negative”.

And the mutagenic call (Test System: AMES SALMONELLA TYPHIMURIUM, Strain/Indicator: TA1535, Metabolic Activation: RAT LIVER S-9, AROCLOR 1254, Method: STANDARD PLATE)?
Its mutagenic call is “inactive; negative”.

And the mutagenic call (Test System: AMES SALMONELLA TYPHIMURIUM, Strain/Indicator: TA1537, Metabolic Activation: HAMSTER LIVER S-9, AROCLOR 1254, Method: STANDARD PLATE)?
Its mutagenic call is “inactive; negative”.

What about the mutagenic call [10] of the same compound?
Its mutagenic call is “inactive; negative”.

And the mutagenic call (Test System: AMES SALMONELLA TYPHIMURIUM, Strain/Indicator: TA1537, Metabolic Activation: RAT LIVER S-9, AROCLOR 1254, Method: STANDARD PLATE)?
Its mutagenic call is “inactive; negative”.

And the mutagenic call (Test System: MOUSE LYMPHOMA, Strain/Indicator: L5178Y (TK+/TK-), Metabolic Activation: NONE, Method: SUSPENSION/PLATE)?
Its mutagenic call is “active; positive. reevaluation of results: positive”.

And the mutagenic call (Test System: MOUSE LYMPHOMA, Strain/Indicator: L5178Y (TK+/TK-), Metabolic Activation: RAT, LIVER, S-9, AROCLOR 1254, Method: SUSPENSION/PLATE)?
Its mutagenic call is “active; positive. reevaluation of results: equivocal”.

How did the mutagenic call [6] turn out when `O=C(O)C(Cl)=C(C(Cl)Cl)C(Cl)Cl` was run?
The mutagenic call was “active; positive”.

What about the mutagenic call [8] of the same compound?
The mutagenic call was “active; positive”.

And the mutagenic call [3]?
Its mutagenic call is “active; positive”.

And the mutagenic call (Test System: AMES SALMONELLA TYPHIMURIUM, Strain/Indicator: TA104, Metabolic Activation: NONE, Method: PREINCUBATION)?
Its mutagenic call is “active; positive”.
